Assay [1] has as its system AM fungi. As to the kind of experiment: Field plot study: AMF spore counts in soil around western wheatgrass roots. Particulars: field plots. It is filed as in vivo. From the text: (§1) Twelve plots of size 50 cm by 50 cm were established on a homogenous site 2.54 meters (running northeast and southwest) by 4.06 meters (running southeast and northwest). Plant distribution was mostly homogeneous across the entire site, with western wheatgrass dominant. The plots were in four rows with three plots in each row. Within a row plots were 25 cm apart. Rows were 50 cm apart. An experimental unit was one plot. Treatments were replicated three times. Treatments included: controls (no treatment), potassium chloride treatment, potassium phosphate treatment, and potassium phosphite treatment. (See, FIG. 2).
In this study phosphorus, either as phosphate or phosphite, was added at a rate of 120 kg of P per hectare (ha). Scaled down this equates to 3 grams of phosphorous per plot. One ha is 10,000 m^2. Each plot is 50 cm by 50 cm, or 0.25 m^2. The subsequent calculation then is 120 Kg/10,000 m^2=X/0.25 m^2; X=3.00 grams of P per plot. (See Table 2).
(§2) Treatments: All plots received the same amount of solution. The control plots were treated with distilled water only (6.375 L). The KCl plots treated with distilled water containing the same amount of K as was needed to convert the phosphorous acid (H3PO3) to dipotassium phosphite (K2HPO3). The phosphate plots were treated with sufficient dipotassium phosphate (K2HPO4) to deliver 3 g of P per plot dissolved in the same amount of distilled water as the control plots received and the KCl plots received. The phosphite plots were treated with sufficient dipotassium phosphite (K2HPO3) to deliver 3 g of P per plot dissolved in the same amount of distilled water as the control plots received, the KCl plots received and the phosphate plots received.
The field experiment reported in this example was conducted during June through October. Plots were established during early June and treated on the 15th and 16th day (as in Example 3 above). The first soil and root sampling was performed 14 days later (t=14). The second set of samples were taken 47 days later (t=61), and the third set 60 days later (t=121 days). Sample size and depth was as detailed above in Example 3.
AMF spores were evaluated in soil samples from which plant roots including plant roots of western wheatgrass had existed and had been removed. Evaluations were performed on the T=0 and the T=47 samples. These evaluations generally entailed mixing the sample with water, centrifugation, and decanting water. This step was performed to remove light organic matter and other light materials, e.g., leaf fragments. This was followed by mixing the soil with a solution of sodium hexametaphosphate (2%) in 2 M sucrose. Centrifugation results in the spores floating on the sucrose solution or suspended in it. The sucrose solution plus spores is decanted into a separatory funnel. The suspension was allowed to exit the funnel one drop at a time. The spores adhere to the inside of the funnel and once all liquid has exited the funnel the spores are washed into a petri-dish and counted under a dissecting microscope.
The specific protocol for spore extraction was as follows: • A) Weigh 5 g of air dried soil into a 20 ml centrifuge tube. For a complete sample this is replicated four times. • B) Fill each tube with water to ˜1.5 cm of the top. Stir to suspend organic matter and other light debris. Let all tubes stand for 10 minutes. • C) Centrifuge at 2000 rpm (475.2×g) for 10 minutes. Be sure tubes are placed across from each other in the centrifuge and are within 0.1 g of the same weight. • D) Pour off and discard supernatant while stirring surface and rotating tube. • E) If much organic matter and other light material remains, repeat steps B through D. • F) Add sucrose/sodium hexametaphosphate solution (2 molar sucrose containing 2% hexametaphosphate: 684.6 g of sucrose (store grade is adequate) and 20 g of sodium hexametaphosphate in one liter of solution using distilled water) to centrifuge tubes to ˜1.5 cm of top. […]

The subject of assay [2] is AMF infections of western wheatgrass (Pascopyron smithii) roots. As to the kind of experiment: Field plot study: AM fungal infection of western wheatgrass roots. It is filed as in vivo. Conditions: field plots.
From the text: as §1, §2
The field experiment reported in this example was conducted during June through October. Plots were established during early June and treated on the 15th and 16th day (as in Example 3 above). […] Sample size and depth was as detailed above in Example 3.
Analyses of infections were performed by examining roots of wheatgrass (Pascopyron smithii). This plant was the dominant plant in all of the plots and is known to be commonly infected with AM fungi. (See, Loree M. A. J. and Williams S. E., New Phytologist, 106:735-744, 1987; and Wang B. and Qui Y.-L. 2006, Ibid.). During sampling of soils using the methodology outlined in Example 3, above, root of target plants were removed and separated by plant species, each sample being labeled and preserved in FAA solution until being further processed.
Staining of the roots was achieved according to published procedures (see, Phillips J. M. and Hayman D. S., Trans. Brit. Mycological Soc., 55:158-160, 1970) except that cotton blue lactophenol was substituted with lactic acid glycerol with trypan blue since lactophenol is toxic. The procedure used for staining was as follows: • A) Remove roots from FAA Solutions. Cut into 1 cm lengths. Place in test tube, push roots to the bottom of the test tube. • B) Cover roots with 10% KOH (10 grams of reagent grade KOH in enough distilled water to 100 ml). Let stand overnight, about 10 hours. • C) Simmer at 90° C. for one hour in a water bath (container with water and test tubes with roots over a heat source). • D) Rinse in tap water. • E) Rinse five minutes in 0.1 N HCl (3.65 […] of HCl in 1000 ml total volume with distilled water). • F) Rinse in tap water. • G) Simmer at 90° C. one hour (in water bath) in Trypan blue Lactic Acid Glycerol (distilled water, 100 ml; lactic acid (reagent grade 85 to 88%) 100 ml; glycerin (reagent grade 85% also listed as glycerol), 200 ml; trypan blue, 0.1 grams (60% dye content). • H) Rinse in tap water. • I) Place in clear lactic acid glycerol (same formulation as above except without the Trypan blue) if destaining is necessary. Samples can be simmered at 90° C. (one hour in water bath) or left at room temperature for at least 72 hours or longer. • J) Mount on standard glass slide (2.5 cm by 7.6 cm) in lactic acid glycerol. Cover slip (2.3 cm by 4.8 cm) used.
An estimate of the degree of infection of western wheatgrass was made by making microscopic scans of each slide such that 40 root segments were evaluated. The evaluation was performed using the 20× objective, e.g., 200× total magnification—eyepieces were 10× multiplied by the objective magnification. […]

On to `[Cl-].[K+]` [KCl, potassium chloride, reference compound], for which the “Total Spores t = 47 days” value in assay [1] (mean n = 3, P added at 120 kg/ha (KCl: same K), second sampling) was 14806Ab Per 100 g soil. Also, the “Total Spores t = 0 days” value in assay [1] (mean n = 3, P added at 120 kg/ha (KCl: same K), t = 0 = first sampling, 14 days after treatment) worked out at 6398Aa Per 100 g soil. Also, the “spore numbers compared with the control” value in assay [1] (second sampling, t = 47) is recorded as “significant increase in spore numbers from the control”. Moreover, in assay [2] (third sampling, t = 97 days), the “infection level compared to the control and phosphorus treated plants” value was “small depression in infection levels”. In addition, the “AM Infection t = 0 days” value in assay [2] (western wheatgrass roots, mean n = 3, first sampling) is recorded as 31Aa Per forty 1.1 mm root segments. Also, in assay [2] (western wheatgrass roots, mean n = 3, second sampling), the “AM Infection t = 47 days” value was 34Aab Per forty 1.1 mm root segments. Moreover, in assay [2] (western wheatgrass roots, mean n = 3, third sampling), the “AM Infection t = 97 days” value is 36BCabc Per forty 1.1 mm root segments.

Values taken from patent publication US12133486B2, “Methods of propagation of arbuscular mycorrhizal fungi (AMF) and uses thereof” (Terra Microbes, LLC, priority 2021, dated 2024).
